Data from patent publication US20100190710A1, “IL-23 RECEPTOR ANTAGONISTS AND USES THEREOF” (Valorisation HSJ, Societe en Commandite, priority 2007, published 2010).
“Also recorded” adds a separate entry of the source. Peptide text beside a SMILES is read from it.

Assays:
IL-12R = target: T1, IL-12R (Homo sapiens, UniProt P42701+Q99665); experiment: IL-12-induced STAT4 phosphorylation (selectivity, Western blot); type: cell-based; conditions: even at high concentrations, i.e., 10 μM
T1 construct: endogenous in cells
Experimental: FIGS. 8A and 8B are a series of graphs and Western Blots showing the specificity and selectivity of IL-23R binding peptides. […] [^125I]-2305 binding was performed in phosphate buffer saline pH=7.4 on PMA-activated HL-60 cells. [^125I]-labelled and unlabelled peptide 2305 was incubated with cells for 1 hour for equilibration. Cells were then washed four times and bound radioactivity measured using a Cobra II Autogamma gamma counter (Packard). Non-activated HL-60 cells, which express little IL-23R, were used as a negative control (shown on Western Blot of IL-23 receptor). A robust increase in IL-23R expression by PMA was observed on duplicate Western blots. Peptide 2305 is easily labelled with [^125I] on its tyrosine; in absence of tyrosine (e.g., peptide 2309) [^14C]-labelled amino acids can be used. […] IL-12R is very homologous to IL-23R. Western Blots of phosphorylated STAT4 and total STAT4 were performed on cell lysates.

[1] = tested on: PMA-induced dermatitis (ear); type: in vivo, CD-1 mice
Text: FIGS. 10A and 10B are a series of images and a graph showing efficacy of topical anti-IL-23R peptides in treating PMA-induced dermatitis. PMA-induced dermatitis is often utilized as a model of chronic (and scaling) dermatitis, reminiscent of psoriatic dermatitis. […] FIG. 10B is a graph showing the differences in weight (mg) of ear punches with control ears untreated with PMA. […] FIGS. 11A to 11C are a series of images and graphs showing dose-response to topical administration of peptide 2309 in PMA-induced dermatitis. FIG. 11A is a photographic representation of dose-dependent effects of topical administration of peptide 2309 (mixed in PEG-400) on PMA-induced dermatitis in CD-1 mice. Concentrations of peptide 2309≧100 nM show significant efficacy.

[2] = tested on: PMA-induced dermatitis (ear); experiment: PMA-induced dermatitis, intraperitoneal injection; type: in vivo, CD-1 mice; conditions: intraperitoneal injection (0.1-1 mg/kg/day)
Experimental: FIG. 12 is a series of images and graphs showing the effect of intraperitoneal injection of the 2309 peptide on PMA-induced dermatitis. On day 1, 10 μl of a 0.01% solution of PMA (v/v in acetone) was applied on the external and internal surfaces of the left ear of CD-1 mice (images in left column). Twenty-four hours later, different doses of the 2309 peptide were injected intraperitoneally (0.1 mg/kg/day; 0.5 mg/kg/day; 1 mg/kg/day bid; n=4 for each group treatment). Animals were sacrificed on day 4 (6 hours after the last 2309 injection). The weight (right column, top graph) and thickness (right column, bottom graph) of all ear punches were then determined and the peptide-treated ears with PMA were compared to PMA-only ears.

PMA-induced ear edema = experiment: PMA-induced ear edema, enteral (oral) administration; type: in vivo, rats; conditions: 20 mg/kg administered orally
Experimental: FIGS. 13A and 13B are graphs showing the effect of peptides APG-2305 (FIG. 13A) and APG-2309 (FIG. 13B) on PMA-induced inflammation. Intraperitoneal administration is abreviated “i.p.” and oral administration is abreviated “p.o.” Peptides APG-2305 and APG-2309 were also given by enteral administration to rats to verify their oral availability. The peptides at various concentrations were injected (twice a day; 200 μl) into the stomach with a gavage needle (Number 20) starting at day 2 of PMA treatment. On day 4 the total peptide dose was given as a bolus and animals were sacrificed 4-6 hours later. […] Scrambled peptide of APG-2305 (5 mg/kg/day) and intraperitoneal APG-2305 served as negative and positive controls respectively. APG-2309 was also injected enterally but inhibit PMA-induced ear edema only slightly at 20 mg/kg administered orally (FIG. 13B). APG-2309 is more hydrophobic than APG-2305.

MOG-induced EAE = experiment: Experimental Autoimmune Encephalitis (EAE) model; type: in vivo, C57/BL6 mice; conditions: for clinical signs of EAE: intraperitoneal
[3] = three times a day (3 mg/kg/day), Sudan black stain, listed as APG-2309

T1 sequence (Q99665 24-862, other chains not shown): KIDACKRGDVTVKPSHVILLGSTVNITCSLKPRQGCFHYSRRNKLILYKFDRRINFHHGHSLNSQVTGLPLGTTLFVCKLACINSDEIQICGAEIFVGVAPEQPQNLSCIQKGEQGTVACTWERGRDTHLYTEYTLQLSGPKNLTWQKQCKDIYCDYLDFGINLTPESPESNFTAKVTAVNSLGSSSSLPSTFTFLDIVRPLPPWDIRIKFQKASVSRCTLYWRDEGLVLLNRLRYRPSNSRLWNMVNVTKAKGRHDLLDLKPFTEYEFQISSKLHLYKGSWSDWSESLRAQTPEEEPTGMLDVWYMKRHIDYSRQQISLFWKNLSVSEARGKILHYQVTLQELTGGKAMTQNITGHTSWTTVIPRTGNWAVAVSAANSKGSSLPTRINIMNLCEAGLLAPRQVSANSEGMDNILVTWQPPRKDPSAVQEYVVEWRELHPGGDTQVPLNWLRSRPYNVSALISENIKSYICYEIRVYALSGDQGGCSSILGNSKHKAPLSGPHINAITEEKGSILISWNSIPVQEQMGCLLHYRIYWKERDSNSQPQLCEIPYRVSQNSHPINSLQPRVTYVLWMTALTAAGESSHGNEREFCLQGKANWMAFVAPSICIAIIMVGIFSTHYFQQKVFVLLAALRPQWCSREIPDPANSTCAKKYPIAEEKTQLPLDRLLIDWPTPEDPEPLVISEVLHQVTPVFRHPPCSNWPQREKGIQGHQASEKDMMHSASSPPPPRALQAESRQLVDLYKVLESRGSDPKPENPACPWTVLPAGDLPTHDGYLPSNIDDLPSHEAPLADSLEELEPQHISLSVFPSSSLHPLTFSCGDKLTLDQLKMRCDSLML

## CSCC[C@@H](N)C(=O)N[C@H](CCC(=O)O)C(=O)N[C@H](CCC(=O)O)C(=O)N[C@H](CO)C(=O)N[C@H](CCCCN)C(=O)N[C@H](CCC(N)=O)C(=O)N[C@H](CC(C)C)C(=O)N[C@H](CCC(N)=O)C(=O)N[C@H](CC(C)C)C(=O)O [Peptide 2309, MEESKQLQL] (HELM PEPTIDE1{[dM].[dE].[dE].[dS].[dK].[dQ].[dL].[dQ].[dL]}$$$$V2.0; N-terminus and C-terminus assumed)
IL-12R
  effect on IL-12-induced STAT4 phosphorylation: does not inhibit; also recorded: inability
[1]; mouse, in vivo
  EC50: ~50 nM
  transdermal penetration: effective transdermal penetration
[1]; topical dose-response (FIG. 11B)
  PMA-induced edema (weight of ear punches): dose-dependent reduction in PMA-induced edema
[1]; topical dose-response (FIG. 11C)
  capillary leak (Evan's blue technique): diminished capillary leak
[1]; topical in PEG-400 (FIG. 11A)
  concentrations showing significant efficacy: ≥ 100 nM
[2]
  redness and ear weight: able to treat PMA-induced dermatitis as evidenced by a decrease in redness and ear weight
PMA-induced ear edema
  PMA-induced ear edema: only slightly
MOG-induced EAE; [3]
  EAE-induced demyelination of the cerebellum: protects against EAE-induced demyelination of the cerebellum; also recorded: totally prevents
  EAE-induced demyelination of the spinal cord: protects against EAE-induced demyelination of the spinal cord; also recorded: totally prevents
MOG-induced EAE; treatment three times a day
  clinical signs of EAE: completely abolished the induction of the disease symptoms
MOG-induced EAE; twice a day at 2 mg/kg/day
  clinical signs of EAE: retarded the appearance of the clinical signs of EAE
